US11267814B2, “Compounds for bone growth” (OsteoQC Inc., priority 2013, dated 2022)

Assays:
[1] = biological target: T1, sclerostin (Homo sapiens, UniProt Q9BQB4); experiment: Modulation of sclerostin/Wnt activity (sclerostin inhibition assay): restoring Wnt3a signaling in the presence of sclerostin; format: cell-based; conditions: IC100 class; Wnt3a signaling in human embryonic cells in presence of sclerostin
T1 construct: host or cells: human embryonic cells (reporter cells)
T1 sequence (Q9BQB4 24-213): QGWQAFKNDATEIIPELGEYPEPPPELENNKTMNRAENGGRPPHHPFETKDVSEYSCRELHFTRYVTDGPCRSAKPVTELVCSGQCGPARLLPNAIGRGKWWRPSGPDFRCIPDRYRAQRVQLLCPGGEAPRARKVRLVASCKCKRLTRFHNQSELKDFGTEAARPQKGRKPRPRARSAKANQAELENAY

[2] = system: MC3T3-E1 (mouse calvarial) osteoblast cells; experiment: Rescue of sclerostin inhibition of mineralization (total calcium); format: cell-based; conditions: Mus musculus, MC3T3-E1; IC100 class; calcium concentration, MC3T3 osteoblast cells treated with sclerostin; read-out: Sclerostin Inhibition of Mineralization; improvement over sclerostin alone.
Experimental: Mineralization (crystalline calcium phosphate formation) represents an in vitro model of bone formation. […] Following the protocol described in Li et al., Compounds were assayed for their ability to rescue the inhibition of mineralization by sclerostin in MC3T3 osteoblast cells.

[3] = system: MC3T3 osteoblast cells; experiment: Osteocalcin (OCN) secretion, bone formation marker, ELISA; format: cell-based, mouse; conditions: Mus musculus; IC100 class; OCN secreted from MC3T3 osteoblast cells treated with sclerostin
Experimental: Bone formation can also be assayed in vitro or in vivo using a serum marker for bone formation, osteocalcin (OCN), available from Biomedical Tecnhnologies, Inc. (Stoughton, Mass.). Following the manufacturer's protocol for the mouse osteocalcin EIA kit (described at the website www.btiinc.com/page/cata2.html#mouse_osteocalcin), bone formation in MC3T3 osteoblast cells was assayed by measuring the concentration of OCN.

[4] = biological target: T2, hERG potassium channel (Homo sapiens, UniProt Q12809); experiment: hERG automated patch clamp assay; format: cell-based; conditions: inhibition of hERG tail current, 5 minutes at room temperature, CHO-K1 cells stably expressing hERG
T2 construct: expressed in transfected cells; host or cells: CHO-K1
Experimental: One major type of cardiovascular toxicity associated with pharmaceutical drugs is caused by drug effects on cardiac ion channels like hERG. Drug-induced inhibition of hERG results in a prolonged QT interval, which can lead to a life-threatening ventricular arrhythmia. Therefore, the inhibitory effect of compounds described in Examples 1-46 on the hERG potassium channel was evaluated using an automated patch clamp assay as described in Mathes, C. (2006) Expert Opin. Ther. Targets, 10 (2): 319-327. CHO-K1 cells stably expressing hERG channels were used.

T2 sequence (Q12809 whole entry): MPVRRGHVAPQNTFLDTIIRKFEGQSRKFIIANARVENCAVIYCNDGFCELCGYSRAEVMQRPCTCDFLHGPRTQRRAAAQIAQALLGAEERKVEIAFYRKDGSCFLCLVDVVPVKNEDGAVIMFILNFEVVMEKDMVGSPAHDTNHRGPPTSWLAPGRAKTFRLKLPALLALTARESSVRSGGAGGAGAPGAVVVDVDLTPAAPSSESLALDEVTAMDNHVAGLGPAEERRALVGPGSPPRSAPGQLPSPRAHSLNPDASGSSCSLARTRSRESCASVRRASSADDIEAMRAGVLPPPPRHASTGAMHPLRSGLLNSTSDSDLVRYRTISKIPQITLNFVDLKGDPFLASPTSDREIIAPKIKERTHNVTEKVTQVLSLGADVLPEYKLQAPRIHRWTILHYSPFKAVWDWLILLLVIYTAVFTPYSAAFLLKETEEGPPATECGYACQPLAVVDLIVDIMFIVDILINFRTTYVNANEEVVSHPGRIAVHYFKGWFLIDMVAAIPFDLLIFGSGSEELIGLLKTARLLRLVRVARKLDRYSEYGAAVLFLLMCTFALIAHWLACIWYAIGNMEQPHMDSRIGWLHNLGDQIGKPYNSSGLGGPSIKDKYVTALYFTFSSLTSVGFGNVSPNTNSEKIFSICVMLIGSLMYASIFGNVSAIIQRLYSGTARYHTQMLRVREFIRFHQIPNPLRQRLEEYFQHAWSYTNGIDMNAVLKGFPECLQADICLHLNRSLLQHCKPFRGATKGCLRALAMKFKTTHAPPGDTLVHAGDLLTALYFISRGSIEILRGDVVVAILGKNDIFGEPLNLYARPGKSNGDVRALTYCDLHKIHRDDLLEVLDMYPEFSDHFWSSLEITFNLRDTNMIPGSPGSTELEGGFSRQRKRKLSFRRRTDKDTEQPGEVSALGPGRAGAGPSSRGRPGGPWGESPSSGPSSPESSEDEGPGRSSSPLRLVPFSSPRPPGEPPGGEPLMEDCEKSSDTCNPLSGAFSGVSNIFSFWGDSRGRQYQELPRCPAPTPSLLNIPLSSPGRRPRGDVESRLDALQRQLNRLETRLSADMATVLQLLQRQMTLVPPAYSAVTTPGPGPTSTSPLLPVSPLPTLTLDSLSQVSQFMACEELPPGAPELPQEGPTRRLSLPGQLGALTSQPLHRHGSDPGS

- Sclerostin Inhibition Assay; improvement over sclerostin alone. [1]: ++ (++ indicates an IC100 < 10 μM)
Structure (SMILES): COc1ccc2c3ccnc(C)c3n(CCCN3CCN(C(=O)OC(C)(C)C)CC3)c2c1 [Example 15, t-butyl 4-(3-(7-methoxy-1-methyl-9H-pyrido[3,4-b]indol-9-yl)propyl) piperazine-1-carboxylate]
- IC100 [2]: < 10 µM
- IC100 [3]: < 10 µM
- hERG (1uM) [4]: ++ (++ indicates more than 50% inhibition of hERG tail current)
